In US12234238B2, “Antimicrobial compounds and methods of making and using the same” (BIOVERSYS AG, priority 2017, dated 2025) one finds MIC data, which are given here for 38 compounds.

Experiment [1] deals with Eschericia coli (E. coli) strain ATCC25922. Kind of experiment: standard microdilution assay to determine minimum inhibitory concentrations (MICs), E. coli. In kind it is cell-based. The following applies: Escherichia coli. The protocol:
(§1) The in vitro activity of the compounds of the present disclosure can be determined. Antimicrobial testing is typically performed to determine the minimum inhibitory concentration (MIC). Minimum inhibitory concentrations (MICs) are determined by the microdilution method in a final volume of 100 μl according to protocols outlined by The Clinical and Laboratory Standards Institute (CLSI). Performance standards for reference strains are assessed within the same experimental design to maintain quality control. See, for example, Clinical Laboratory Standards Institute: Methods for dilution antimicrobial susceptibility tests for bacteria that grow aerobically M7-A8. Approved Standard-Eighth Edition. Wayne, PA: CLSI; December 2008: and Clinical Laboratory Standards Institute: Performance Standards for Antimicrobial Susceptibility Testing M100-S20; Approved Standard-Twentieth Edition. Wayne, PA: CLSI; June 2010. The compounds of the present disclosure were tested for antimicrobial activity. The Compounds 1-122 were run against Eschericia coli (E. coli) strain ATCC25922 and against Staphylococcus aureus (S. aureus) 11540 strain using a standard microdilution assay to determine minimum inhibitory concentrations (MICs). […] It will be recognized by one skilled in the art that the compounds can be assessed against other bacterial organisms and that the presentation of data for activity against Eschericia coli and Staphylococcus aureus are illustrative and in no way is intended to limit the scope of the present disclosure. The compounds of the present disclosure can be assayed against a range of other microorganisms depending upon the performance activity desired to be gathered. Furthermore, the “+” and “−” representation and the selection of a cutoff value of 16 micrograms/mL is also illustrative and in no way is intended to limit the scope of the present disclosure.

Experiment [2] relates to Staphylococcus aureus (S. aureus) 11540 strain. Kind of experiment: standard microdilution assay to determine minimum inhibitory concentrations (MICs), S. aureus. Type of experiment: cell-based. The protocol: as §1
In general terms: Broth dilution looks for growth in wells or tubes with falling amounts of substance.

Molecules are shown by their SMILES.

Consider `N=C(N)SCC[C@@H]1CCC[C@@H](c2ccc(-n3cc4cc(-c5cc(CCC[C@@H](N)C6CC6)cc(Cl)c5F)[nH]c4nc3=O)cc2)N1` [Compound 1], for which the MIC in experiment [1] and in experiment [2] was at most 16 µg/mL each time.

As to `C[C@H](N)CCCc1cc(Cl)c(F)c(-c2cc3cn(-c4ccc([C@@H]5CCC[C@@H](CCSC6=NCCN6)N5)cc4)c(=O)nc3[nH]2)c1` [Compound 2], the MIC in experiment [1] and in experiment [2] was at most 16 µg/mL each time.

For `N[C@H](CCCc1cc(Cl)c(F)c(-c2cc3cn(-c4ccc([C@@H]5CCC[C@@H](CCSC6=NCCN6)N5)cc4)c(=O)nc3[nH]2)c1)C1CC1` [Compound 3], the MIC in experiment [1] and in experiment [2] was at most 16 µg/mL throughout.

Take `C[C@H](N)CCCc1cc(Cl)c(F)c(-c2cc3cn(-c4ccc([C@@H]5CCC[C@@H](CCSC(=N)N)N5CCCF)cc4)c(=O)nc3[nH]2)c1` [Compound 4]: the MIC in experiment [1] and in experiment [2] was at most 16 µg/mL in each case.

For the compound `N=C(N)SCC[C@@H]1CCC[C@@H](c2ccc(-n3cc4cc(-c5cc(CCC[C@@H](N)C6CC6)cc(Cl)c5F)[nH]c4nc3=O)cc2)N1CCCF` [Compound 5], the MIC in experiment [1] and in experiment [2] was at most 16 µg/mL throughout.

Turning to `C[C@H](N)CCCc1cc(Cl)c(F)c(-c2cc3cn(-c4ccc([C@@H]5CCC[C@@H](CCSC(=N)N)N5CCCO)cc4)c(=O)nc3[nH]2)c1` [Compound 6], the MIC in experiment [1] and in experiment [2] was at most 16 µg/mL each time.

On to `N=C(N)SCC[C@@H]1CCC[C@@H](c2ccc(-n3cc4cc(-c5cc(CCC[C@@H](N)C6CC6)cc(Cl)c5F)[nH]c4nc3=O)cc2)N1CCCO` [Compound 7], for which the MIC in experiment [1] and in experiment [2] was at most 16 µg/mL throughout.

With `N=C(N)SCC[C@@H]1CCC[C@@H](c2ccc(-n3cc4cc(-c5cc(CCC[C@@H](N)CO)cc(Cl)c5F)[nH]c4nc3=O)cc2)N1` [Compound 8], the MIC in experiment [1] and in experiment [2] was at most 16 µg/mL in each case.

As to `C[C@H](N)CCCc1cc(Cl)c(F)c(-c2cc3cn(-c4ccc([C@H](C)NCCCSC(=N)N)cc4)c(=O)nc3[nH]2)c1` [Compound 9], the MIC in experiment [1] and in experiment [2] was at most 16 µg/mL throughout.

Consider `N=C(N)SCC[C@@H]1CCC[C@@H](c2ccc(-n3cc4cc(-c5cc(CCC[C@@H](N)COC(=O)c6ccccc6)cc(Cl)c5F)[nH]c4nc3=O)cc2)N1` [Compound 10], for which the MIC in experiment [1] and in experiment [2] was at most 16 µg/mL throughout.

On to `C[C@H](NCC[C@H](C)SC(=N)N)c1ccc(-n2cc3cc(-c4cc(CCC[C@@H](N)C5CC5)cc(Cl)c4F)[nH]c3nc2=O)cc1` [Compound 11], for which the MIC in experiment [1] and in experiment [2] was at most 16 µg/mL in each case.

As for `C[C@H](N)CCCc1cc(Cl)c(F)c(-c2cc3cn(-c4ccc([C@@H]5CCCCN5CCCSC(=N)N)cc4)c(=O)nc3[nH]2)c1` [Compound 12], the MIC in experiment [1] and in experiment [2] was at most 16 µg/mL in each case.

Turning to `N=C(N)SCCCN1CCCC[C@H]1c1ccc(-n2cc3cc(-c4cc(CCC[C@@H](N)C5CC5)cc(Cl)c4F)[nH]c3nc2=O)cc1` [Compound 13], the MIC in experiment [1] and in experiment [2] was at most 16 µg/mL throughout.

As to `C[C@H](N)CCCc1cc(Cl)c(F)c(-c2cc3cn(-c4ccc([C@@H]5CC=CCN5CCCSC(=N)N)cc4)c(=O)nc3[nH]2)c1` [Compound 14], the MIC in experiment [1] and in experiment [2] was at most 16 µg/mL throughout.

`N=C(N)SCCCN1CC=CC[C@H]1c1ccc(-n2cc3cc(-c4cc(CCC[C@@H](N)C5CC5)cc(Cl)c4F)[nH]c3nc2=O)cc1` [Compound 15]: the MIC in experiment [1] and in experiment [2] was at most 16 µg/mL in each case.

On to `C[C@H](N)CCCc1cc(Cl)c(F)c(-c2cc3cn(-c4ccc([C@@H]5CC=C[C@@H](CCSC(=N)N)N5)cc4)c(=O)nc3[nH]2)c1` [Compound 16], for which the MIC in experiment [1] and in experiment [2] was at most 16 µg/mL throughout.

On to `C[C@H](N)CCCc1cc(Cl)c(F)c(-c2cc3cn(-c4ccc([C@@H]5CCC[C@@H](CCO)N5CCCSC(=N)N)cc4)c(=O)nc3[nH]2)c1` [Compound 17], for which the MIC in experiment [1] and in experiment [2] was at most 16 µg/mL each time.

In the case of `N=C(N)SCCCN1[C@H](CCO)CCC[C@H]1c1ccc(-n2cc3cc(-c4cc(CCC[C@@H](N)C5CC5)cc(Cl)c4F)[nH]c3nc2=O)cc1` [Compound 18], the MIC in experiment [1] and in experiment [2] was at most 16 µg/mL each time.

Take `C[C@H](N)CCCc1cc(Cl)c(F)c(-c2cc3cn(-c4ccc([C@@H]5CCC[C@@H](CCSC(=N)N)N5CCCSC(=N)N)cc4)c(=O)nc3[nH]2)c1` [Compound 19]: the MIC in experiment [1] and in experiment [2] was at most 16 µg/mL in each case.

Regarding `N=C(N)SCCCN1[C@H](CCSC(=N)N)CCC[C@H]1c1ccc(-n2cc3cc(-c4cc(CCC[C@@H](N)C5CC5)cc(Cl)c4F)[nH]c3nc2=O)cc1` [Compound 20], the MIC in experiment [1] and in experiment [2] was at most 16 µg/mL in each case.

Turning to `C[C@H](N)CCCc1cc(Cl)c(F)c(-c2cc3cn(-c4ccc([C@@H]5CCC[C@@H](CCSC(=N)N)N5)c(F)c4)c(=O)nc3[nH]2)c1` [Compound 21], the MIC in experiment [1] and in experiment [2] was at most 16 µg/mL in each case.

Regarding `N=C(N)SCC[C@@H]1CCC[C@@H](c2ccc(-n3cc4cc(-c5cc(CCC[C@@H](N)CO)cc(Cl)c5F)[nH]c4nc3=O)cc2F)N1` [Compound 22], the MIC in experiment [1] and in experiment [2] was at most 16 µg/mL in each case.

Consider `C[C@H](N)Cc1cc(Cl)c(F)c(-c2cc3cn(-c4ccc([C@@H]5CCC[C@@H](CCSC(=N)N)N5)cc4)c(=O)nc3[nH]2)c1` [Compound 23], for which the MIC in experiment [1] and in experiment [2] was at most 16 µg/mL each time.

Turning to `C[C@@H](N)Cc1cc(Cl)c(F)c(-c2cc3cn(-c4ccc([C@@H]5CCC[C@@H](CCSC(=N)N)N5)cc4)c(=O)nc3[nH]2)c1` [Compound 24], the MIC in experiment [1] and in experiment [2] was at most 16 µg/mL in each case.

Turning to `N=C(N)SCC[C@@H]1CCC[C@@H](c2ccc(-n3cc4cc(-c5cc(CCC[C@@H](N)C6CC6)cc(Cl)c5F)[nH]c4nc3=O)cc2F)N1` [Compound 25], the MIC in experiment [1] and in experiment [2] was at most 16 µg/mL each time.

As to `C[C@H](N)CCCc1cc(Cl)c(F)c(-c2cc3cn(-c4ccc([C@H](C)NCC[C@H](C)SC(=N)N)cc4)c(=O)nc3[nH]2)c1` [Compound 26], the MIC in experiment [1] and in experiment [2] was at most 16 µg/mL in each case.

As for `C[C@H](NCCCSC(=N)N)c1ccc(-n2cc3cc(-c4cc(CCC[C@@H](N)C5CC5)cc(Cl)c4F)[nH]c3nc2=O)cc1` [Compound 27], the MIC in experiment [1] and in experiment [2] was at most 16 µg/mL in each case.

For the compound `C[C@H](O)CCCc1cc(Cl)c(F)c(-c2cc3cn(-c4ccc([C@@H]5CCC[C@@H](CCSC(=N)N)N5)cc4)c(=O)nc3[nH]2)c1` [Compound 28], the MIC in experiment [1] and in experiment [2] was at most 16 µg/mL each time.

`C[C@@H](N)CCc1cc(Cl)c(F)c(-c2cc3cn(-c4ccc([C@@H]5CCC[C@@H](CCSC(=N)N)N5)cc4)c(=O)nc3[nH]2)c1` [Compound 29]: the MIC in experiment [1] and in experiment [2] was at most 16 µg/mL each time.

Take `C[C@H](O)CNCc1cc(Cl)c(F)c(-c2cc3cn(-c4ccc([C@@H]5CCC[C@@H](CCSC(=N)N)N5)cc4)c(=O)nc3[nH]2)c1` [Compound 30]: the MIC in experiment [1] and in experiment [2] was at most 16 µg/mL each time.

Take `C[C@H](N)CCCN1CCCC1c1cc2cn(-c3ccc([C@@H]4CCC[C@@H](CCSC(=N)N)N4)cc3)c(=O)nc2[nH]1` (stereo partly shown) [Compound 31]: the MIC in experiment [1] and in experiment [2] was at most 16 µg/mL throughout.

On to `C[C@H](N)CCCN1CCCCC1c1cc2cn(-c3ccc([C@@H]4CCC[C@@H](CCSC(=N)N)N4)cc3)c(=O)nc2[nH]1` (stereo partly shown) [Compound 33], for which the MIC in experiment [1] and in experiment [2] was at most 16 µg/mL throughout.

Consider `N=C(N)SCC[C@@H]1CCC[C@@H](c2ccc(-n3cc4cc(-c5cc(CCC[C@@H](N)COc6ccccc6)cc(Cl)c5F)[nH]c4nc3=O)cc2)N1` [Compound 35], for which the minimal inhibitory concentration (MIC) in experiment [1] and in experiment [2] was at most 16 µg/mL throughout.

`C=C[C@H](N)CCCc1cc(Cl)c(F)c(-c2cc3cn(-c4ccc([C@@H]5CCC[C@@H](CCSC(=N)N)N5)c(F)c4)c(=O)nc3[nH]2)c1` [Compound 36]: the MIC in experiment [1] and in experiment [2] was at most 16 µg/mL each time.

Take `C[C@H](N)CCc1cc(Cl)c(F)c(-c2cc3cn(-c4ccc([C@@H]5CCC[C@@H](CCSC(=N)N)N5)cc4)c(=O)nc3[nH]2)c1` [Compound 37]: the minimal inhibitory concentration (MIC) in experiment [1] and in experiment [2] was at most 16 µg/mL each time.

With `C[C@@H](O)CNCc1cc(Cl)c(F)c(-c2cc3cn(-c4ccc([C@@H]5CCC[C@@H](CCSC(=N)N)N5)cc4)c(=O)nc3[nH]2)c1` [Compound 38], the MIC in experiment [1] and in experiment [2] was at most 16 µg/mL in each case.

For the compound `COc1ccc(OC[C@H](N)CCCc2cc(Cl)c(F)c(-c3cc4cn(-c5ccc([C@@H]6CCC[C@@H](CCSC(=N)N)N6)cc5)c(=O)nc4[nH]3)c2)cc1` [Compound 39], the MIC in experiment [1] and in experiment [2] was at most 16 µg/mL in each case.

As for `Cc1ccccc1OC[C@H](N)CCCc1cc(Cl)c(F)c(-c2cc3cn(-c4ccc([C@@H]5CCC[C@@H](CCSC(=N)N)N5)cc4)c(=O)nc3[nH]2)c1` [Compound 40], the MIC in experiment [1] and in experiment [2] was at most 16 µg/mL in each case.
